Test results: the supplement of paper PMC12317010
Counter-ions that a name gives are not always drawn.

Experiment: collision cross section in nitrogen (drift tube, single-field); higher = larger gas-phase ion size
[1] = ion type: [M+H], ion source: APCI, ion mode: Positive
[2] = ion type: [M+H], ion source: ESI, ion mode: Positive
[3] = ion type: [M+Na], ion source: ESI, ion mode: Positive
[4] = ion type: [M-H], ion source: ESI, ion mode: Negative
[5] = ion type: [M+], ion source: APCI, ion mode: Positive
[6] = ion source: APCI, ion mode: Positive, ion type: [M]+ (permanent cation)
[7] = ion source: ESI, ion mode: Positive, ion type: [M]+ (permanent cation)
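Note: chemical standards at 10 µM analysed by drift tube IMS-QTOF MS in about 3.95 torr nitrogen, mean of duplicate injections differing ≤1%, mass error below 10 ppm.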

Structure (SMILES)	collision cross section in nitrogen [2]	collision cross section in nitrogen [3]	other results
CC(C)c1ccc2c(c1)CC[C@H]1[C@](C)(CN)CCC[C@]21C [Dehydroabietylamine acetate]	–	–	collision cross section in nitrogen [1]: 188.9 Å²
Cc1ccc2nc(-c3ccc(N)cc3)sc2c1 [Dehydrothio-4-toluidine]	153.9 Å²	–	collision cross section in nitrogen [1]: 153.9 Å²; collision cross section in nitrogen [5]: 153.5 Å²; collision cross section in nitrogen [4]: 155.8 Å²
CCS(=O)(=O)CCSP(=O)(OC)OC [Demeton-S-methyl sulfone]	145 Å²	155.1 Å²	collision cross section in nitrogen [1]: 144.5 Å²
CCOP(=O)(OCC)SCCSCC [Demeton-S]	–	162.4 Å²	–
CC(C)Nc1nc(N)nc(Cl)n1 [Desethylatrazine]	139.4 Å²	–	collision cross section in nitrogen [1]: 139.3 Å²
C[C@@H]1C[C@H]2[C@@H]3CCC4=CC(=O)C=C[C@]4(C)[C@@]3(F)[C@@H](O)C[C@]2(C)[C@@]1(O)C(=O)COP(=O)(O)O [Dexamethasone sodium phosphate]	–	–	collision cross section in nitrogen [4]: 201 Å²
C[C@@H]1C[C@H]2[C@@H]3CCC4=CC(=O)C=C[C@]4(C)[C@@]3(F)[C@@H](O)C[C@]2(C)[C@@]1(O)C(=O)CO [Dexamethasone]	177.6 Å²	216.8 Å²	–
COc1ccc2c(c1)[C@]13CCCC[C@@H]1[C@H](C2)N(C)CC3 [Dextromethorphan hydrobromide]	166.7 Å²	–	collision cross section in nitrogen [1]: 166.1 Å²
CCCCC(CC)COC(=O)c1ccccc1C(=O)OCC(CC)CCCC (stereo not given) [Di(2-ethylhexyl) phthalate]	–	215.9 Å²	–
COCCOC(=O)c1ccccc1C(=O)OCCOC [Di(2-methoxyethyl) phthalate]	–	161.7 Å²	–
CCCCCCCCOC(=O)c1ccccc1C(=O)OCCCCCCCC [Di-n-octyl phthalate]	–	214.6 Å²	–
CCCOC(=O)c1ccccc1C(=O)OCCC [Di-n-propylphthalate]	–	171.5 Å²	–
Cc1ccc(C2OC[C@@H]3OC(c4ccc(C)cc4)O[C@H]([C@H](O)CO)[C@@H]3O2)cc1 (stereo not given in full) [Di-p-methylbenzylidenesorbitol]	193.1 Å²	194.4 Å²	collision cross section in nitrogen [1]: 191.5 Å²
C=CC(=O)NC(C)(C)CC(C)=O [Diacetone acrylamide]	–	145.2 Å²	–
C=CCOC(=O)c1ccccc1C(=O)OCC=C [Diallyl phthalate]	–	159 Å²	–
CC(=O)Nc1c(I)c(NC(C)=O)c(I)c(C(=O)O)c1I [Diatrizoate sodium]	175.5 Å²	179.4 Å²	–
CC(=O)Nc1c(I)c(NC(C)=O)c(I)c(C(=O)O)c1I [Diatrizoic acid]	179.4 Å²	183.6 Å²	–
CCOP(=S)(OCC)Oc1cc(C)nc(C(C)C)n1 [Diazinon]	173.7 Å²	–	collision cross section in nitrogen [1]: 173.5 Å²
c1ccc(N=NNc2ccccc2)cc1 [Diazoaminobenzene]	147 Å²	–	–
O=C1C(N(CO)C(=O)NCO)N(CO)C(=O)N1CO (stereo not given) [Diazolidinyl urea]	–	–	collision cross section in nitrogen [1]: 162.8 Å²
c1ccc2c(c1)ccc1cc3c(ccc4ccccc43)cc12 [Dibenz[a,h]anthracene]	–	–	collision cross section in nitrogen [5]: 160 Å²
c1ccc2c(c1)sc1ccccc12 [Dibenzothiophene]	–	–	collision cross section in nitrogen [5]: 130.2 Å²
c1ccc(CNCc2ccccc2)cc1 [Dibenzylamine]	149.6 Å²	–	collision cross section in nitrogen [1]: 150.8 Å²

Structure (SMILES)	collision cross section in nitrogen [2]	collision cross section in nitrogen [3]	other results
CCCCOC(=O)c1ccccc1C(=O)OCCCC [Dibutyl 1,2-benzenedicarboxylate]	–	182.9 Å²	–
CCCCOP(=O)(CCCC)OCCCC [Dibutyl butylphosphonate]	–	181.8 Å²	–
Nc1c(Cl)cc([N+](=O)[O-])cc1Cl [Dichloran]	–	–	collision cross section in nitrogen [4]: 131 Å²
Oc1ccc(Cl)cc1Cc1cc(Cl)ccc1O [Dichlorophen]	–	–	collision cross section in nitrogen [4]: 155.8 Å²
CCOc1nc(F)cc2nc(S(=O)(=O)Nc3c(Cl)cccc3Cl)nn12 [Diclosulam]	183.5 Å²	194 Å²	collision cross section in nitrogen [1]: 184.6 Å²; collision cross section in nitrogen [4]: 183 Å²
COP(=O)(OC)O/C(C)=C/C(=O)N(C)C [Dicrotophos]	–	153.2 Å²	collision cross section in nitrogen [1]: 150.2 Å²
O=C(CC(C(=O)OC1CCCCC1)S(=O)(=O)O)OC1CCCCC1 (stereo not given) [Dicyclohexyl sodium sulfosuccinate]	–	–	collision cross section in nitrogen [4]: 188.4 Å²
C1CCC(NC2CCCCC2)CC1 [Dicyclohexylamine]	146.9 Å²	–	collision cross section in nitrogen [1]: 147.6 Å²
O=c1[nH]cnc2c1ncn2[C@H]1CC[C@@H](CO)O1 [Didanosine]	–	–	collision cross section in nitrogen [4]: 153.5 Å²
CCCCCCCCCC[N+](C)(C)CCCCCCCCCC [Didecyldimethylammonium chloride]	–	–	collision cross section in nitrogen [6]: 208.2 Å²; collision cross section in nitrogen [7]: 209.1 Å²
CCCCCCCCCCCC[N+](C)(C)CCCCCCCCCCCC [Didodecyldimethylammonium bromide]	–	–	collision cross section in nitrogen [7]: 225.6 Å²
CCOP(=O)(CN(CCO)CCO)OCC [Diethyl (N,N-bis(2-hydroxyethyl)amino)methanephosphonate]	153.9 Å²	156.5 Å²	collision cross section in nitrogen [1]: 153.5 Å²; collision cross section in nitrogen [4]: 157.5 Å²
CCOP(=O)(O)OCC [Diethyl hydrogen phosphate]	–	–	collision cross section in nitrogen [4]: 129.2 Å²
CC/C(=C(/CC)c1ccc(O)cc1)c1ccc(O)cc1 [Diethylstilbestrol]	–	–	collision cross section in nitrogen [4]: 176.2 Å²
Cn1c(-c2ccccc2)cc(-c2ccccc2)[n+]1C [Difenzoquat metilsulfate]	–	–	collision cross section in nitrogen [6]: 160 Å²; collision cross section in nitrogen [7]: 160.8 Å²
O=C(NC(=O)c1c(F)cccc1F)Nc1ccc(Cl)cc1 [Diflubenzuron]	–	177.4 Å²	collision cross section in nitrogen [4]: 169.5 Å²
O=C(Nc1ccc(F)cc1F)c1cccnc1Oc1cccc(C(F)(F)F)c1 [Diflufenican]	189.1 Å²	–	collision cross section in nitrogen [1]: 184.7 Å²; collision cross section in nitrogen [4]: 180.6 Å²
CC(=NNC(=O)Nc1cc(F)cc(F)c1)c1ncccc1C(=O)O [Diflufenzopyr-sodium]	–	182.3 Å²	–
CC(=NNC(=O)Nc1cc(F)cc(F)c1)c1ncccc1C(=O)O [Diflufenzopyr]	–	181.6 Å²	–
COc1ccc(-n2nc(C(F)F)cc2-c2ccc(S(C)=O)cc2)cc1 (stereo not given) [Difpas-pyrazole]	187.4 Å²	–	collision cross section in nitrogen [1]: 187.8 Å²
C[C@]12CC[C@H](O)C[C@H]1CC[C@@H]1[C@@H]2C[C@@H](O)[C@]2(C)[C@@H](C3=CC(=O)OC3)CC[C@]12O [Digoxigenin]	–	220.7 Å²	–
C[C@H]1O[C@@H](O[C@H]2[C@@H](O)C[C@H](O[C@H]3[C@@H](O)C[C@H](O[C@H]4CC[C@@]5(C)[C@H](CC[C@@H]6[C@@H]5C[C@@H](O)[C@]5(C)[C@@H](C7=CC(=O)OC7)CC[C@]65O)C4)O[C@@H]3C)O[C@@H]2C)C[C@H](O)[C@@H]1O [Digoxin]	–	276.8 Å²	collision cross section in nitrogen [4]: 269.7 Å²
CCCCCCOC(=O)c1ccccc1C(=O)OCCCCCC [Dihexyl phthalate]	–	202.6 Å²	–

More lines, main results first:

collision cross section in nitrogen [2]	collision cross section in nitrogen [3]	Structure (SMILES)	other results
204.8 Å²	213.4 Å²	CC(=O)OCC(=O)[C@@]12N=C(C)O[C@@H]1C[C@H]1[C@@H]3CCC4=CC(=O)C=C[C@]4(C)[C@H]3[C@@H](O)C[C@@]12C [Deflazacort]	collision cross section in nitrogen [1]: 205.2 Å²; collision cross section in nitrogen [4]: 206.7 Å²
188.3 Å²	–	CC(C)c1ccc2c(c1)CC[C@H]1[C@](C)(CN)CCC[C@]21C [Dehydroabietylamine]	–
133.7 Å²	–	CCNc1nc(N)nc(Cl)n1 [Deisopropylatrazine]	collision cross section in nitrogen [1]: 133.5 Å²
–	159.5 Å²	C=C(C)C(=O)OCCOCCOC(=O)C(=C)C [Di(ethylene glycol) dimethacrylate]	–
–	180.8 Å²	CCCCOC(=O)CCCCC(=O)OCCCC [Dibutyl adipate]	–
–	191.2 Å²	CCCCOC(=O)CCCCCCCC(=O)OCCCC [Dibutyl azelate]	collision cross section in nitrogen [4]: 176 Å²
–	193.5 Å²	CCCCOC(=O)CCCCCCCCC(=O)OCCCC [Dibutyl decanedioate]	–
–	177.1 Å²	CCOc1ccc(NC(=O)OC(C)C)cc1OCC [Diethofencarb]	collision cross section in nitrogen [4]: 171.9 Å²
–	171.5 Å²	CCOC(=O)CCCCCCCCC(=O)OCC [Diethyl decanedioate]	–
–	146.8 Å²	CCOC=C(C(=O)OCC)C(=O)OCC [Diethyl ethoxymethylenemalonate]	–
–	180.8 Å²	O=C(OCCOCCOC(=O)c1ccccc1)c1ccccc1 [Diethylene glycol dibenzoate]	–
–	150.1 Å²	CCCCOCCOCCOC(C)=O [Diethylene glycol monobutyl ether acetate]	–
141.3 Å²	145.3 Å²	CCc1c(C)cc(N)c(CC)c1N [Diethylmethylbenzenediamine]	collision cross section in nitrogen [1]: 140.6 Å²
–	193.9 Å²	CCC(=O)Oc1ccc(/C(CC)=C(\CC)c2ccc(OC(=O)CC)cc2)cc1 [Diethylstilbestrol dipropionate]	–
–	209.9 Å²	CCCCCCCOC(=O)c1ccccc1C(=O)OCCCCCCC [Diheptyl phthalate]	–
–	202.5 Å²	CCCCCCOC(=O)CCCCC(=O)OCCCCCC [Dihexyl hexanedioate]	–
–	210.8 Å²	CCCCCCOC(=O)CCCCCCCC(=O)OCCCCCC [Dihexyl nonanedioate]	–
